Laboratory results taken from PubChem BioAssay AID2060330 (Molecular Pharmacology Branch, DTP, NCI, 2025).

Tested on: LG0703-F948-PDC spheroids with HUVEC/MSC, viability
Experiment: Anticancer human tumor LG0703-F948-PDC patient-derived lung adenocarcinoma cell line growth inhibition [IpAb]
Conditions: for IC50: curve of first compound; for viability, T/C: stronger effect = lower value
Summary of the method: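 Multi-cell spheroids of 60% tumour cells, 25% HUVEC and 15% MSC in ultra-low-attachment U-bottom wells, treated with agents combined with ipatasertib or abemaciclib. Half-log ranges top out near clinical Cmax, or 10 microM when Cmax is unknown.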

[1] = second compound 0.01 µM, first compound 0.00949 µM
[2] = second compound 0.01 µM, first compound 0.03 µM
[3] = second compound 0.01 µM, first compound 0.0949 µM
[4] = second compound 0.01 µM, first compound 0.3 µM
[5] = second compound 0.0316 µM, first compound 0.00949 µM
[6] = second compound 0.0316 µM, first compound 0.03 µM
[7] = second compound 0.0316 µM, first compound 0.0949 µM
[8] = second compound 0.0316 µM, first compound 0.3 µM
[9] = second compound 0.1 µM, first compound 0.00949 µM
[10] = second compound 0.1 µM, first compound 0.03 µM
[11] = second compound 0.1 µM, first compound 0.0949 µM
[12] = second compound 0.1 µM, first compound 0.3 µM
[13] = second compound 0.316 µM, first compound 0.00949 µM
[14] = second compound 0.316 µM, first compound 0.03 µM
[15] = second compound 0.316 µM, first compound 0.0949 µM
[16] = second compound 0.316 µM, first compound 0.3 µM
[17] = second compound 1 µM, first compound 0.00949 µM
[18] = second compound 1 µM, first compound 0.03 µM
[19] = second compound 1 µM, first compound 0.0949 µM
[20] = second compound 1 µM, first compound 0.3 µM
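Further: spheroids exposed to compounds for seven days before readout.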
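Wherever viability, T/C is given: T/C percent relative to DMSO vehicle wells set as 100% viability.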

| Compound | IC50 (second compound 0.01 µM) | IC50 (second compound 0.0316 µM) | IC50 (second compound 0.1 µM) | IC50 (second compound 0.316 µM) | IC50 (second compound 1 µM) | viability, T/C [1] | viability, T/C [2] | viability, T/C [3] | viability, T/C [4] | viability, T/C [5] | viability, T/C [6] | viability, T/C [7] | viability, T/C [8] | viability, T/C [9] | viability, T/C [10] | viability, T/C [11] | viability, T/C [12] | viability, T/C [13] | viability, T/C [14] | viability, T/C [15] | other results |
| --- | --- | --- | --- | --- | --- | --- | --- | --- | --- | --- | --- | --- | --- | --- | --- | --- | --- | --- | --- | --- | --- |
| CC(=O)c1c(C)c2cnc(Nc3ccc(N4CCNCC4)cn3)nc2n(C2CCCC2)c1=O + CCN1CCN(Cc2ccc(Nc3ncc(F)c(-c4cc(F)c5nc(C)n(C(C)C)c5c4)n3)nc2)CC1 | > 300 nM | > 300 nM | > 300 nM | > 300 nM | > 300 nM | 92% | 89.5% | 88.7% | 83.9% | 84.5% | 97.8% | 83.5% | 76.8% | 71.6% | 81.9% | 92.1% | 70.5% | 88% | 90.9% | 84.7% | viability, T/C (second compound 0.01 µM, first compound 0.000949 µM): 106%; viability, T/C (second compound 0.01 µM, first compound 0.003 µM): 102%; viability, T/C (second compound 0.0316 µM, first compound 0.000949 µM): 97.9%; viability, T/C (second compound 0.0316 µM, first compound 0.003 µM): 85.7%; viability, T/C (second compound 0.1 µM, first compound 0.000949 µM): 81.7%; viability, T/C (second compound 0.1 µM, first compound 0.003 µM): 77.7%; viability, T/C (second compound 0.316 µM, first compound 0.000949 µM): 89.1%; viability, T/C (second compound 0.316 µM, first compound 0.003 µM): 86.8%; viability, T/C [16]: 81.4%; viability, T/C (second compound 1 µM, first compound 0.000949 µM): 82.3%; viability, T/C (second compound 1 µM, first compound 0.003 µM): 77.3%; viability, T/C [17]: 54.4%; viability, T/C [18]: 83%; viability, T/C [19]: 86.4%; viability, T/C [20]: 79.7% |
| CC(C)(C)c1cnc(CSc2cnc(NC(=O)C3CCNCC3)s2)o1 + CCN1CCN(Cc2ccc(Nc3ncc(F)c(-c4cc(F)c5nc(C)n(C(C)C)c5c4)n3)nc2)CC1 | 77 nM | 50.9 nM | 51.7 nM | 39.4 nM | 31.9 nM | 98.5% | 86% | 43% | 0.52% | 79.2% | 67.3% | 29.3% | 0.36% | 74.1% | 71.5% | 25.9% | 0.39% | 76.2% | 62% | 11.2% | viability, T/C (second compound 0.01 µM, first compound 0.949 µM): 0.27%; viability, T/C (second compound 0.01 µM, first compound 3 µM): 0.36%; viability, T/C (second compound 0.0316 µM, first compound 0.949 µM): 0.13%; viability, T/C (second compound 0.0316 µM, first compound 3 µM): 0.27%; viability, T/C (second compound 0.1 µM, first compound 0.949 µM): 0.19%; viability, T/C (second compound 0.1 µM, first compound 3 µM): 0.29%; viability, T/C [16]: 0.34%; viability, T/C (second compound 0.316 µM, first compound 0.949 µM): 0.2%; viability, T/C (second compound 0.316 µM, first compound 3 µM): 0.3%; viability, T/C [17]: 77.1%; viability, T/C [18]: 48.5%; viability, T/C [19]: 29.2%; viability, T/C [20]: 0.4%; viability, T/C (second compound 1 µM, first compound 0.949 µM): 0.41%; viability, T/C (second compound 1 µM, first compound 3 µM): 0.31% |
